The text below walks through data of patent publication US12365667B2, “Sulfone pyridine alkyl amide-substituted heteroaryl compounds” (BRISTOL-MYERS SQUIBB COMPANY, priority 2017, dated 2025).

What is called IC50 is the concentration that inhibits the measured activity by half.

This assay deals with IFNα-induced STAT phosphorylation (pSTAT5) in human whole blood. Briefly: IFNα-Induced STAT Phosphorylation in Human Whole Blood. In kind it is cell-based. The note with it: 1 h incubation with compound, 1000 U/mL recombinant human IFNα A/D for 15 min, pSTAT5 in CD3 positive population, read-out: IFNα-Induced Stat Phosph. (IC50). The method, then: IFNα-Induced STAT Phosphorylation in Human Whole Blood
After an hour long incubation with compound, human whole blood (drawn with either EDTA or ACD-A as anti-coagulant) was stimulated with 1000 U/mL recombinant human IFNα A/D (R&D Systems 11200-2) for 15 min. The stimulation was stopped by adding Fix/Lyse buffer (BD 558049). Cells were stained with a CD3 FITC antibody (BD 555916), washed, and permeabilized on ice using Perm III buffer (BD 558050). Cells were then stained with an Alexa-Fluor 647 pSTAT5 (pY694) antibody (BD 612599) for 30 min prior to analysis on the FACS Canto II. The amount of pSTAT5 expression was quantitated by median fluorescence intensity after gating on the CD3 positive population.

As to `CNC(=O)c1nnc(Nc2cc(F)c(F)cn2)cc1Nc1ncccc1S(C)(=O)=O` [Example 87], the IC50 was 417 nM. To `CNC(=O)c1nnc(Nc2cc(C(F)(F)F)n(C)n2)cc1Nc1ncccc1S(C)(=O)=O` [Example 88] belongs 47 nM; to `CNC(=O)c1nnc(Nc2ccc(-n3cc(Cl)ccc3=O)cn2)cc1Nc1ncccc1S(C)(=O)=O` [Example 89], 32 nM; to `CNC(=O)c1nnc(Nc2ccc(Cl)nn2)cc1Nc1ncccc1S(C)(=O)=O` [Example 90], 13 nM. Take `CNC(=O)c1nnc(Nc2ccc(C(F)(F)F)cn2)cc1Nc1ncccc1S(C)(=O)=O` [Example 91]: the IC50 stood at 43 nM. The figure for `CNC(=O)c1nnc(Nc2ccc(-n3cccc(C(F)(F)F)c3=O)cn2)cc1Nc1ncccc1S(C)(=O)=O` [Example 92] is 13 nM; for `CNC(=O)c1nnc(Nc2cnc(C)cn2)cc1Nc1ncccc1S(C)(=O)=O` [Example 93] it is 28 nM. To `CNC(=O)c1nnc(Nc2cnc(C(F)(F)F)cn2)cc1Nc1ncccc1S(C)(=O)=O` [Example 95] belongs 133 nM; to `CNC(=O)c1nnc(Nc2cc(COC)ccn2)cc1Nc1ncccc1S(C)(=O)=O` [Example 96], 4 nM; to `CNC(=O)c1nnc(Nc2ccc(N3CCOCC3=O)cn2)cc1Nc1ncccc1S(C)(=O)=O` [Example 97], 13 nM.

For the compound `CNC(=O)c1nnc(Nc2cc(C)nc(C)n2)cc1Nc1ncccc1S(C)(=O)=O` [Example 98], the IC50 was 49 nM.

As for `CNC(=O)c1nnc(Nc2cnc3c(n2)CCCCC3)cc1Nc1ncccc1S(C)(=O)=O` [Example 99], the IC50 was 44 nM. Consider `CNC(=O)c1nnc(Nc2ccc(N3CC(C)OC(C)C3)cn2)cc1Nc1ncccc1S(C)(=O)=O` (centres unmarked) [Example 100], for which the half-maximal inhibitory concentration (IC50) was 15 nM. To `CNC(=O)c1nnc(Nc2cc(COC)ncn2)cc1Nc1ncccc1S(C)(=O)=O` [Example 101] belongs 95 nM; to `CNC(=O)c1nnc(Nc2ccc(-c3ccccc3)cn2)cc1Nc1ncccc1S(C)(=O)=O` [Example 102], 138 nM; to `CNC(=O)c1nnc(Nc2ccc(N3CCOCC3C)cn2)cc1Nc1ncccc1S(C)(=O)=O` (centres unmarked) [Example 103], 16 nM.

As to `CNC(=O)c1nnc(Nc2ccc(-c3c(F)cccc3F)nn2)cc1Nc1ncccc1S(C)(=O)=O` [Example 104], the IC50 amounted to 46 nM. The figure for `CNC(=O)c1nnc(Nc2ccc(N3CCOC(C)(C)C3)cn2)cc1Nc1ncccc1S(C)(=O)=O` [Example 105] is 9 nM; for `CNC(=O)c1nnc(Nc2ccc(-c3ccccc3)nn2)cc1Nc1ncccc1S(C)(=O)=O` [Example 106] it is 124 nM; for `CCOC(=O)N1CCN(c2ccc(Nc3cc(Nc4ncccc4S(C)(=O)=O)c(C(=O)NC)nn3)nc2)CC1` [Example 107] it is 13 nM. The figure for `CCCC(=O)Nc1cc(Nc2ncccc2S(C)(=O)=O)c(C(=O)NC)nn1` [Example 108] is 167 nM. To `CNC(=O)c1nnc(Nc2ccc(N3CCOCC3)nn2)cc1Nc1ncccc1S(C)(=O)=O` [Example 110] belongs 20 nM. For `CNC(=O)c1nnc(Nc2ccnc(-c3ccccc3)n2)cc1Nc1ncccc1S(C)(=O)=O` [Example 111], the IC50 stood at 248 nM. To `CNC(=O)c1nnc(NC(=O)OC)cc1Nc1ncccc1S(C)(=O)=O` [Example 112] belongs 142 nM; to `CNC(=O)c1nnc(Nc2cccc(C(F)(F)F)n2)cc1Nc1ncccc1S(C)(=O)=O` [Example 113], 88 nM; to `CNC(=O)c1nnc(Nc2cncc(-c3ccccc3)n2)cc1Nc1ncccc1S(C)(=O)=O` [Example 115], 190 nM.

As to `CNC(=O)c1nnc(Nc2cccc(-c3ccccc3)n2)cc1Nc1ncccc1S(C)(=O)=O` [Example 117], the IC50 was determined as 334 nM.

Turning to `CNC(=O)c1nnc(NC(=O)CCOC)cc1Nc1ncccc1S(C)(=O)=O` [Example 118], the IC50 is 131 nM. To `CCCCC(=O)Nc1cc(Nc2ncccc2S(C)(=O)=O)c(C(=O)NC)nn1` [Example 119] belongs 73 nM; to `CNC(=O)c1nnc(NC(=O)C=C(C)C)cc1Nc1ncccc1S(C)(=O)=O` [Example 120], 62 nM; to `CCNC(=O)Nc1cc(Nc2ncccc2S(C)(=O)=O)c(C(=O)NC)nn1` [Example 121], 39 nM.

As to `CNC(=O)c1nnc(NC(=O)NC(C)(C)C)cc1Nc1ncccc1S(C)(=O)=O` [Example 122], the IC50 came out at 156 nM. To `CNC(=O)c1nnc(NC(=O)C=C2CCOCC2)cc1Nc1ncccc1S(C)(=O)=O` [Example 123] belongs 183 nM.

For the compound `CNC(=O)c1nnc(Nc2cncc(C(F)(F)F)n2)cc1Nc1ncccc1S(C)(=O)=O` [Example 127], the IC50 is 302 nM. The figure for `CNC(=O)c1nnc(NC(=O)C=C2CCCCC2)cc1Nc1ncccc1S(C)(=O)=O` [Example 128] is 61 nM; for `CNC(=O)c1nnc(NC(=O)CC(C)C)cc1Nc1ncccc1S(C)(=O)=O` [Example 129] it is 80 nM; for `CNC(=O)c1nnc(NC(=O)C(C)C)cc1Nc1ncccc1S(C)(=O)=O` [Example 131] it is 434 nM.

In the case of `CCOC(=O)Nc1cc(Nc2ncccc2S(C)(=O)=O)c(C(=O)NC)nn1` [Example 132], the IC50 was found to be 209 nM. For the compound `CNC(=O)c1nnc(NC(=O)COCc2ccccc2)cc1Nc1ncccc1S(C)(=O)=O` [Example 133], the IC50 amounted to 1570 nM. To `CNC(=O)c1nnc(NC(=O)OC(C)C)cc1Nc1ncccc1S(C)(=O)=O` [Example 134] belongs 296 nM; to `CCCOC(=O)Nc1cc(Nc2ncccc2S(C)(=O)=O)c(C(=O)NC)nn1` [Example 136], 349 nM.

As for `CNC(=O)c1nnc(Nc2ccnc(C(F)(F)F)n2)cc1Nc1ncccc1S(C)(=O)=O` [Example 138], the IC50 stood at 447 nM. Consider `CNC(=O)c1nnc(NC(=O)CC(C)(C)C)cc1Nc1ncccc1S(C)(=O)=O` [Example 139], for which the IC50 was 893 nM. On to `CNC(=O)c1nnc(Nc2ccc(OC(F)(F)F)cn2)cc1Nc1ncccc1S(C)(=O)=O` [Example 140], for which the IC50 is 34 nM. `CCC(O)(CC)c1cnc(Nc2cc(Nc3ncccc3S(C)(=O)=O)c(C(=O)NC)nn2)cc1Cl` [Example 147]: the 50% inhibitory concentration (IC50) was 231 nM. The figure for `CCOc1cc(Nc2cc(Nc3ncccc3S(C)(=O)=O)c(C(=O)NC)nn2)ncc1C(=O)NC1CC1` [Example 148] is 408 nM; for `CCOc1cc(Nc2cc(Nc3ncccc3S(C)(=O)=O)c(C(=O)NC)nn2)ncc1C(C)(C)O` [Example 149] it is 141 nM; for `CNC(=O)c1nnc(Nc2ccc(C(C)(C)O)c(F)n2)cc1Nc1ncccc1S(C)(=O)=O` [Example 151] it is 2 nM. The figure for `CNC(=O)c1nnc(Nc2cccc(C3CC3)n2)cc1Nc1ncccc1S(C)(=O)=O` [Example 152] is 40 nM; for `CNC(=O)c1nnc(Nc2ccc(COC)cn2)cc1Nc1ncccc1S(C)(=O)=O` [Example 154] it is 6 nM; for `CNC(=O)c1nnc(Nc2cc(COC)ccn2)cc1Nc1ncccc1S(C)(=O)=O` [Example 156] it is 7 nM. To `CNC(=O)c1nnc(Nc2ccc(C(C)(C)OC)cn2)cc1Nc1ncccc1S(C)(=O)=O` [Example 157] belongs 21 nM; to `CNC(=O)c1nnc(Nc2ccc(OCCOC)cn2)cc1Nc1ncccc1S(C)(=O)=O` [Example 158], 10 nM.
